US7879853B2, “4,6-disubstituted pyrimidines and their use as protein kinase inhibitors” (Bayer Schering Pharma AG, priority 2004, dated 2011)

Legend:
GST-ΔPH-Akt1 = molecular target: T1, GST-ΔPH-Akt1 (Homo sapiens, UniProt P31749); assay: Biochemical ΔPH Akt1 assay (flashplate, 33P-ATP, histone 2B); details: GST-ΔPH-Akt1, histone 2B substrate, 100 nM ATP, 80 minutes at 30° C.; read-out: Akt inhibition: IC50 (inhibition of deltaPHAkt1)
T1 construct: named GST-deltaPH-Akt1; 107480aa; cloned in the pAcG1 vector; made in house; host or cells: SF9 insect cells (pAcG1 vector), co-expressed with PDK1
T1 sequence (P31749 107-480 limits assumed, stated change not applied): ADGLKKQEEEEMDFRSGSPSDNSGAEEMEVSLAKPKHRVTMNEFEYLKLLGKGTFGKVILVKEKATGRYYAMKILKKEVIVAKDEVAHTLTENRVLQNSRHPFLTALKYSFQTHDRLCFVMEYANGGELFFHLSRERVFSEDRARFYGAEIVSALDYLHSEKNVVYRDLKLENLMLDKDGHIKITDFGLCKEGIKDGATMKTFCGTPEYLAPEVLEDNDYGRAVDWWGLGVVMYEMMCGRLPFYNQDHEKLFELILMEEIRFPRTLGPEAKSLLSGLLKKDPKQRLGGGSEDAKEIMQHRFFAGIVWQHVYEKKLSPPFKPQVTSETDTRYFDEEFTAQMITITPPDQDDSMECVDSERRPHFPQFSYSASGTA
Description: For the biochemical assay ΔPHAkt1 was used devoid of its PH domain as a GST fusion protein (named GST-deltaPH-Akt1; 107480aa; cloned in the pAcG1 vector (BD Biosciences Pharmingen)), co-expressed with PDK1 in SF9 insect cells. The protein was purified using glutathion-affinity chromatography by standard protocols.
In order to study the inhibition of Akt according to the invention, a flashplate-based assay has been developed.
The Akt1 assay is a biochemical assay using Akt1 devoid of its PH domain and co-expressed with PDK1 in insect cells. The GST-ΔPH-Akt1 assay is run in 96 well plates by incubating 100 ng/well GST-ΔPH-Akt1, 100 ng/well histone 2B (Roche, #223514) as substrate, 10 μl of compound of invention (test compounds were dissolved as 10 mM solutions in dimethylsulfoxide (DMSO) and subsequently diluted) and 100 nM ATP (including ^33P-ATP) in 100 μl of reaction buffer ([…], pH7.5; 3 mM MgCl2; 3 mM MnCl2; 3 μM Na-Orthovanadat; 1 mM DTT; 1 μg/ml PEG8000) for 80 minutes at 30° C. The reactions are terminated by adding 100 μl stopping buffer (2% H3PO4 for 5 minutes) and are washed 3 times by using washing buffer (0.9% NaCl). Relying on the incorporation of ^33P into the protein substrate histone 2B, the detection is based on the adhesion of the phosphorylated protein to the surface of scintillator-coated flash plates (NEN, USA; #SMP-200). This phosphorylation is measured by counting the plate for 60 sec. using a plate reader (Wallac Microbeta; Perkin Elmer, USA). The analysis of the data is performed using a biostatistical program (GraphPad Prism, USA).

melting point	IC50 (GST-ΔPH-Akt1) [µM]	Compound
136 to 138 °C		Nc1ccccc1C(=O)Nc1ccc(Nc2cc(-c3cccc4c3oc3ccccc34)ncn2)cc1.O=C(O)C(F)(F)F [Compound 50, 2-Amino-N-[4-(6-dibenzofuran-4-yl-pyrimidin-4-ylamino)-phenyl]-benzamide trifluoroacetate]
140 to 147 °C	≤ 5	Nc1cccc(C(=O)Nc2ccc(Nc3cc(-c4cccc5c4oc4ccccc45)ncn3)cc2)c1.O=C(O)C(F)(F)F [Compound 51, 3-Amino-N-[4-(6-Dibenzofuran-4-yl-pyrimidin-4-ylamino)-phenyl]-benzamide trifluoroacetate]
87 to 90 °C		NCCc1ccc(C(=O)Nc2cccc(Nc3cc(-c4cccc5c4oc4ccccc45)ncn3)c2)cc1.O=C(O)C(F)(F)F [Compound 58, 4-(2-Amino-ethyl)-N-[3-(6-dibenzofuran-4-yl-pyrimidin-4-ylamino)-phenyl]-benzamide trifluoroacetate]
140 to 150 °C	≤ 5	Nc1ccccc1C(=O)Nc1cccc(Nc2cc(-c3cccc4c3oc3ccccc34)ncn2)c1.O=C(O)C(F)(F)F [Compound 59, 2-Amino-N-[3-(6-dibenzofuran-4-yl-pyrimidin-4-ylamino)-phenyl]-benzamide trifluoroacetate]
150 to 156 °C	≤ 5	NCc1cccc(C(=O)Nc2cccc(Nc3cc(-c4cccc5c4oc4ccccc45)ncn3)c2)c1.O=C(O)C(F)(F)F [Compound 61, 3-Aminomethyl-N-[3-(6-dibenzofuran-4-yl-pyrimidin-4-ylamino)-phenyl]-benzamide trifluoroacetate]
185 to 188 °C	≤ 5	Nc1ccc(C(=O)Nc2cccc(Nc3cc(-c4cccc5c4oc4ccccc45)ncn3)c2)cc1.O=C(O)C(F)(F)F [Compound 62, 4-Amino-N-[3-(6-dibenzofuran-4-yl-pyrimidin-4-ylamino)-phenyl]-benzamide trifluoroacetate]
145 to 150 °C		NCc1ccc(C(=O)Nc2ccc(Nc3cc(-c4cccc5c4oc4ccccc45)ncn3)cc2)cn1.O=C(O)C(F)(F)F [Compound 64, 6-Aminomethyl-N-[4-(6-dibenzofuran-4-yl-pyrimidin-4-ylamino)-phenyl]-nicotinamide trifluoroacetate]
248 to 250 °C		NCc1cc(C(=O)Nc2ccc(Nc3cc(-c4cccc5c4oc4ccccc45)ncn3)cc2)ccn1.O=C(O)C(F)(F)F [Compound 65, 2-Aminomethyl-N-[4-(6-dibenzofuran-4-yl-pyrimidin-4-ylamino)-phenyl]-isonicotinamide trifluoroacetate]
180 to 185 °C	≤ 5	Cc1ccc(NC(=O)c2ccc(CN)cc2)cc1Nc1cc(-c2cccc3c2oc2ccccc23)ncn1.O=C(O)C(F)(F)F [Compound 67, 4-Aminomethyl-N-[3-(6-dibenzofuran-4-yl-pyrimidin-4-ylamino)-4-methyl-phenyl]-benzamide trifluoroacetate]
195 to 205 °C		NCC(C(=O)Nc1ccc(Nc2cc(-c3cccc4c3oc3ccccc34)ncn2)cc1)c1ccc(Cl)c(Cl)c1.O=C(O)C(F)(F)F (stereo not shown) [Compound 75, 3-Amino-N-[4-(6-dibenzofuran-4-yl-pyrimidin-4-ylamino)-phenyl]-2-(3,4-dichloro-phenyl)-propionamide trifluoroacetate]
138 to 145 °C		NCC(C(=O)Nc1cccc(Nc2cc(-c3cccc4c3oc3ccccc34)ncn2)c1)c1ccc(Cl)c(Cl)c1.O=C(O)C(F)(F)F (stereo not shown) [Compound 76, 3-Amino-N-[3-(6-dibenzofuran-4-yl-pyrimidin-4-ylamino)-phenyl]-2-(3,4-dichlorophenyl)-propionamide trifluoroacetat]
164 to 170 °C	≤ 5	NCc1ccc(C(=O)Nc2ccc(Nc3cc(-c4cccc5c4oc4ccccc45)ncn3)cc2)nc1.O=C(O)C(F)(F)F [Compound 77, 5-Aminomethyl-pyridine-2-carboxylic acid [4-(6-dibenzofuran-4-yl-pyrimidin-4-ylamino)-phenyl]-amide trifluoroacetate]

More lines, now with the values behind:

Compound	melting point	IC50 (GST-ΔPH-Akt1) [µM]
O=C(Nc1ccc(Nc2cc(-c3cccc4c3oc3ccccc34)ncn2)cc1)c1cccc(N2CCCC2)c1 [Compound 6, N-[4-(6-Dibenzofuran-4-yl-pyrimidin-4-ylamino)-phenyl]-3-pyrrolidin-1-ylbenzamide]	250 to 255 °C	≤ 5
O=C(Nc1ccc(Nc2cc(-c3cccc4c3oc3ccccc34)ncn2)cc1)c1ccc(Cl)c(Cl)c1 [Compound 9, 3,4-Dichloro-N-[4-(6-dibenzofuran-4-yl-pyrimidin-4-ylamino)-phenyl]-benzamide]	317 to 321 °C	≤ 5
O=C(Nc1ccc(Nc2cc(-c3cccc4c3oc3ccccc34)ncn2)cc1)c1ccncc1 [Compound 11, N-[4-(6-Dibenzofuran-4-yl-pyrimidin-4-ylamino)-phenyl]-isonicotinamide]	283 to 295 °C	≤ 5
CN(C)Cc1ccc(C(=O)Nc2ccc(Nc3cc(-c4cccc5c4oc4ccccc45)ncn3)cc2)cc1 [Compound 12, N-[4-(6-Dibenzofuran-4-yl-pyrimidin-4-ylamino)-phenyl]-4-dimethylaminomethyl-benzamide]	299 °C	≤ 5
CN(C)c1ccc(C(=O)Nc2cccc(Nc3cc(-c4cccc5c4oc4ccccc45)ncn3)c2)cc1 [Compound 42, N-[3-(6-Dibenzofuran-4-yl-pyrimidin-4-ylamino)-phenyl]-4-dimethylamino-benzamide]	> 250 °C	≤ 5
N#Cc1ccc(C(=O)Nc2ccc(Nc3cc(-c4cccc5c4oc4ccccc45)ncn3)cc2)cc1 [Compound 46, 4-Cyano-N-[4-(6-dibenzofuran 4-yl-pyrimidin-4-ylamino)-phenyl]-benzamide]		≤ 5
NCCc1ccc(C(=O)Nc2ccc(Nc3cc(-c4cccc5c4oc4ccccc45)ncn3)cc2)cc1.O=C(O)C(F)(F)F [Compound 55, 4-(2-Amino-ethyl)-N-[4-(6-dibenzofuran-4-yl-pyrimidin-4-ylamino)-phenyl]-benzamide trifluoroacetate]	202 °C	
NCc1ccc(CC(=O)Nc2ccc(Nc3cc(-c4cccc5c4oc4ccccc45)ncn3)cc2)cc1.O=C(O)C(F)(F)F [Compound 66, 2-(4-Aminomethyl-phenyl)-N-[4-(6-dibenzofuran-4-yl-pyrimidin-4-ylamino)-phenyl]-acetamide trifluoroacetate]	251 to 255 °C	
COCCNc1ccc(C(=O)Nc2ccc(Nc3cc(-c4cccc5c4oc4ccccc45)ncn3)cc2)cc1.O=C(O)C(F)(F)F [Compound 71, N-[4-(6-Dibenzofuran-4-yl-pyrimidin-4-ylamino)-phenyl]-4-(2-methoxyethylamino)benzamide trifluoroacetate]	> 250 °C	≤ 5
NCc1ccc(C(=O)Nc2ccc(Nc3cc(-c4cccc5c4oc4ccccc45)ncn3)cc2)c(F)c1 [Compound 72, 4-Aminomethyl-N-[4-(6-dibenzofuran-4-yl-pyrimidin-4-ylamino)-phenyl]-2-fluorobenzamide]	> 200 °C (dec.)	≤ 5
NCc1cncc(C(=O)Nc2ccc(Nc3cc(-c4cccc5c4oc4ccccc45)ncn3)cc2)c1 [Compound 74, 5-Aminomethyl-N-[4-(6-dibenzofuran-4-yl-pyrimidin-4-ylamino)-phenyl]-nicotinamide]	184 °C (dec.)	≤ 5
